Columns and labels:
[1] = biological target: T1, Aurora kinase A (Homo sapiens) (UniProt O14965)
T1 sequence (whole entry): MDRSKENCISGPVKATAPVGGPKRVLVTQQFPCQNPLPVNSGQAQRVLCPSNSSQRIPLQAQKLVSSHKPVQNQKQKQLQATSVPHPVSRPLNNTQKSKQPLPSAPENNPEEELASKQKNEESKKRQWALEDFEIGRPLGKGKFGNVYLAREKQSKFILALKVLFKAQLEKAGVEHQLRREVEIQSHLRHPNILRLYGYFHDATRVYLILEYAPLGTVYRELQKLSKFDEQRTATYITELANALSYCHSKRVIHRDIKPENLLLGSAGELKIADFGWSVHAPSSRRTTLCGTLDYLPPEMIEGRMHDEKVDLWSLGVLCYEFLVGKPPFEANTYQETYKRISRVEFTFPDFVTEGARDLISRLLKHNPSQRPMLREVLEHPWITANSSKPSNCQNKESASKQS

[2] = biological target: Mitogen-activated protein kinase 10 (Homo sapiens) (UniProt P53779)
Sequence of Mitogen-activated protein kinase 10 (Homo sapiens) (P53779 whole entry): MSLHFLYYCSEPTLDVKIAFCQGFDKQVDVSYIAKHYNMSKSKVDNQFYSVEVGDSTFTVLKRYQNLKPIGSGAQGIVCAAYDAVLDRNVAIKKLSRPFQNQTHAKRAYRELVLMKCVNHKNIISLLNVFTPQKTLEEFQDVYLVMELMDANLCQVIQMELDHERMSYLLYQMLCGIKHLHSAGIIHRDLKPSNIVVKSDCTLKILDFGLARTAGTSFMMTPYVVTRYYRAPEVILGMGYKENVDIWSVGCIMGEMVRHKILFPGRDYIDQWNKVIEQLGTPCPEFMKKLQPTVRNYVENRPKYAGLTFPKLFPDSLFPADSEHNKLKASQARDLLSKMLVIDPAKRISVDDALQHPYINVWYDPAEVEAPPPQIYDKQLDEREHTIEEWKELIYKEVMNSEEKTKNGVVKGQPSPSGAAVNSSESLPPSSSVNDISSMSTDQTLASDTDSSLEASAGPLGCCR

[3] = system: Mast/stem cell growth factor receptor Kit (Homo sapiens), P10721 [A829P]
Sequence of Mast/stem cell growth factor receptor Kit (Homo sapiens), P10721 [A829P] (P10721 whole entry A829P): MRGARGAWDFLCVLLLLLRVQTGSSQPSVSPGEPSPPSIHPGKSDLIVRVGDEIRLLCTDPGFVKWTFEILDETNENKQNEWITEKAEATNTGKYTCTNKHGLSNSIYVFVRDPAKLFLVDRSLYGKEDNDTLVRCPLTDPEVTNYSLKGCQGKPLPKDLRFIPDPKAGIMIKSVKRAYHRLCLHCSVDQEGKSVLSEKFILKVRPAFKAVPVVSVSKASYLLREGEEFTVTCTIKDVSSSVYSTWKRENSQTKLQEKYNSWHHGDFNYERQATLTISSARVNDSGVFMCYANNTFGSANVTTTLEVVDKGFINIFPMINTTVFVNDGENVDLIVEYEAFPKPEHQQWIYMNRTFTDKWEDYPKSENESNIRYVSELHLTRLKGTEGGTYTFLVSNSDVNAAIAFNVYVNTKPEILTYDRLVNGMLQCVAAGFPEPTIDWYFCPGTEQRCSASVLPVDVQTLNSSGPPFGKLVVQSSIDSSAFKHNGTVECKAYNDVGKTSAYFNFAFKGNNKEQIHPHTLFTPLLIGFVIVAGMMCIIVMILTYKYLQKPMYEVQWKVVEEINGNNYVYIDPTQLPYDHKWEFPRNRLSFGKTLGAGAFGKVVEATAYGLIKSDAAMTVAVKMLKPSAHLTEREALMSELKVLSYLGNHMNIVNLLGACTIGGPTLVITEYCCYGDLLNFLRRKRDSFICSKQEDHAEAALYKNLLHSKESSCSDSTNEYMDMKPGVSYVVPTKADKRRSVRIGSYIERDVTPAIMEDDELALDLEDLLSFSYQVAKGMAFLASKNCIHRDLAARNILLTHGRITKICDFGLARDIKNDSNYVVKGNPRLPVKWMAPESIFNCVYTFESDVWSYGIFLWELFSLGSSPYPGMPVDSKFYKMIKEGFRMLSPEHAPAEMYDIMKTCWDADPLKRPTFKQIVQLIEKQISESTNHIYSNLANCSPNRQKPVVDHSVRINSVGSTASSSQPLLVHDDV

[4] = biological target: Tyrosine-protein kinase Lyn (Homo sapiens) (UniProt P07948)
Sequence of Tyrosine-protein kinase Lyn (Homo sapiens) (P07948 2-512 limits assumed): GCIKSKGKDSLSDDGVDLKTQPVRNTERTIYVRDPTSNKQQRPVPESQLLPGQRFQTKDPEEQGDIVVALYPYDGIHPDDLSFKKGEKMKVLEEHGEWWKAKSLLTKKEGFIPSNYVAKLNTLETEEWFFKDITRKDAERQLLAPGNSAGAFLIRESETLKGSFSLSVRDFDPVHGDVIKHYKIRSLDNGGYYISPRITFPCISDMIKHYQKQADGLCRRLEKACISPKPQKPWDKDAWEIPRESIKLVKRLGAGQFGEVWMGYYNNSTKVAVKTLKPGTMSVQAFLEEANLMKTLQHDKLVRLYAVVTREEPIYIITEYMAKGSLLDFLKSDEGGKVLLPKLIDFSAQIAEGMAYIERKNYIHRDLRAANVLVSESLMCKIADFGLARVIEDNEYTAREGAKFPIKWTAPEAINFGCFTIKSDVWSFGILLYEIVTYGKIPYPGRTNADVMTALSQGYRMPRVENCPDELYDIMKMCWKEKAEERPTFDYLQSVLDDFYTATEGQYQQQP

[5] = biological target: T2, Dual specificity mitogen-activated protein kinase kinase 6 (Homo sapiens) (UniProt P52564)
T2 sequence (whole entry): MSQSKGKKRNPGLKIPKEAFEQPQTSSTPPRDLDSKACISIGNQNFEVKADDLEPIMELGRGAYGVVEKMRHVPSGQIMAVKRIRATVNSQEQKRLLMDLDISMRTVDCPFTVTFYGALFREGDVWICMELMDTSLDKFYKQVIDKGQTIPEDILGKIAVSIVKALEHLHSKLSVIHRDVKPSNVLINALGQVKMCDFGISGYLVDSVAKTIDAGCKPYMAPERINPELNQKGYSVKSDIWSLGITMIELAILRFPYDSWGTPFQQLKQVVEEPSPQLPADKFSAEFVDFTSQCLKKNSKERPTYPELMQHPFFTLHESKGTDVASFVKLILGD

[6] = biological target: T3, Serine/threonine-protein kinase D2 (Homo sapiens) (UniProt Q9BZL6)
T3 sequence (whole entry): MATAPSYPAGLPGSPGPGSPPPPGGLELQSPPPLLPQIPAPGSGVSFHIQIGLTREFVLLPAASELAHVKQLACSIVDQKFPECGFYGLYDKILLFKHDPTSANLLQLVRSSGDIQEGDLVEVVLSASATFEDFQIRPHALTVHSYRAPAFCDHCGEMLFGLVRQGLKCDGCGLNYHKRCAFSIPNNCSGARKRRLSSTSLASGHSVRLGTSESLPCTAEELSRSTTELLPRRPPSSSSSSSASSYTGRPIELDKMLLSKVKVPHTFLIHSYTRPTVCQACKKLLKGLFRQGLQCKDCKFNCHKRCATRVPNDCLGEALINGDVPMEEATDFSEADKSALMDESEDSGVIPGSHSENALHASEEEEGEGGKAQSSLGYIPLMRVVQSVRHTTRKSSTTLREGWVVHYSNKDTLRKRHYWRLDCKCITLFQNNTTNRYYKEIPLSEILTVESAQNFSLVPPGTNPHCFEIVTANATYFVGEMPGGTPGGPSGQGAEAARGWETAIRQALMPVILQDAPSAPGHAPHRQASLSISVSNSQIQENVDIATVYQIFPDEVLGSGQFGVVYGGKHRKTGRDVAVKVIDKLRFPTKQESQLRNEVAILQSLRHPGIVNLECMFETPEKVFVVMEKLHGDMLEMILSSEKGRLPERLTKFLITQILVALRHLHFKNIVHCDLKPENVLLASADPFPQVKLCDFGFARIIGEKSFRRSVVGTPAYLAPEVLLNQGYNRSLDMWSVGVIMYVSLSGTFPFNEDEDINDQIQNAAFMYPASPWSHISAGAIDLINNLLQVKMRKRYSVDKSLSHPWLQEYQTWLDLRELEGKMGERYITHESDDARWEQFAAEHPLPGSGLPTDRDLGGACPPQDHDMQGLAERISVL

[7] = biological target: T4, cAMP-dependent protein kinase catalytic subunit PRKX (Homo sapiens) (UniProt P51817)
T4 sequence (whole entry): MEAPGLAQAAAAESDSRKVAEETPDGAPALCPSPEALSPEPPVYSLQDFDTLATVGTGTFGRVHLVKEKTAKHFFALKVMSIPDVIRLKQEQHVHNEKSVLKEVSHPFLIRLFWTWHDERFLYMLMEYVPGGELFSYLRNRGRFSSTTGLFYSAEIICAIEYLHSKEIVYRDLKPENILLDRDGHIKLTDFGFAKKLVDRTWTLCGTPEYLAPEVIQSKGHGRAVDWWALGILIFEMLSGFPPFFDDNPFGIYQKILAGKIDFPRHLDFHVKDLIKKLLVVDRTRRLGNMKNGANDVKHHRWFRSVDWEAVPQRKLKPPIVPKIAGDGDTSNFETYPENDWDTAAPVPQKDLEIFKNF

[8] = biological target: Serine/threonine-protein kinase SIK1 (Homo sapiens) (UniProt P57059)
Sequence of Serine/threonine-protein kinase SIK1 (Homo sapiens) (P57059 whole entry): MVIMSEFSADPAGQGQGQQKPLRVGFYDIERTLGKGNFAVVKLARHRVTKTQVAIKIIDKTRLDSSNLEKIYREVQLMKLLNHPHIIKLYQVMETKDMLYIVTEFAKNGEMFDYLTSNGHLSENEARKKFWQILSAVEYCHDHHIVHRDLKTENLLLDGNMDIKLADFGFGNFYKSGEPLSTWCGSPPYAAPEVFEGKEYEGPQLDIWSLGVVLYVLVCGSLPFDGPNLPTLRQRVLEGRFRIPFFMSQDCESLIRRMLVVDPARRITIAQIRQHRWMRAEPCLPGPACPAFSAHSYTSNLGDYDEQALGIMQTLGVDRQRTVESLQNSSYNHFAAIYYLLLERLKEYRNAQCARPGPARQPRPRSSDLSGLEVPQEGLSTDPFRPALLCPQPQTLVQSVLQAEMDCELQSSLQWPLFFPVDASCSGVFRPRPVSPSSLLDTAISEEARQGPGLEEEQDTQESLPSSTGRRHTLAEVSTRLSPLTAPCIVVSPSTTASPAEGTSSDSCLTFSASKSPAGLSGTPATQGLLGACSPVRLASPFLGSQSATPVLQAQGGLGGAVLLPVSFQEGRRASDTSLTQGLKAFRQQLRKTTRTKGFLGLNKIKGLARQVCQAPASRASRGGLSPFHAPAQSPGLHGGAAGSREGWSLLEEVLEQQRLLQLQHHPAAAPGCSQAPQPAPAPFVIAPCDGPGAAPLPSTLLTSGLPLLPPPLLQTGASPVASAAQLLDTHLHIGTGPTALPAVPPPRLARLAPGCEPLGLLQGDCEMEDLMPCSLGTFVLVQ

[9] = biological target: T5, Tyrosine-protein kinase Tec (Homo sapiens) (UniProt P42680)
T5 sequence (whole entry): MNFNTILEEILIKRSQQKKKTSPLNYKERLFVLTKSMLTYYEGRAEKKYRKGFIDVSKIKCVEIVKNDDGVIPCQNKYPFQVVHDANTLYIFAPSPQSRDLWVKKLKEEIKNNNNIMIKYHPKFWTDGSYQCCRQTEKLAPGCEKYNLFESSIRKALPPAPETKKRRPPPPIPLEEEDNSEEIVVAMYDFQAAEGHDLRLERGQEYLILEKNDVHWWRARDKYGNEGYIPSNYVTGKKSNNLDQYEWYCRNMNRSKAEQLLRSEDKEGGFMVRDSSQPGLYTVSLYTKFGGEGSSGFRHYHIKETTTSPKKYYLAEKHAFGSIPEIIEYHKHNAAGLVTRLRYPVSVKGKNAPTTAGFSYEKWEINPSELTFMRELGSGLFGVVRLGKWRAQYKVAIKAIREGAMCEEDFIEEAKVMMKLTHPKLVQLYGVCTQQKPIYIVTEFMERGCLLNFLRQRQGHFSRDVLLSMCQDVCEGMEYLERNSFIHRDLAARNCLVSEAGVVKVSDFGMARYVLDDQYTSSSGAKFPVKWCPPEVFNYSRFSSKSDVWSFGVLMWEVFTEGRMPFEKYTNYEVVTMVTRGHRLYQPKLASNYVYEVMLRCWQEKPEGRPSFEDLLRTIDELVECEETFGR

[10] = Compound concentration 100.0 nM
[11] = Compound concentration 1000.0 nM

Measured: residual activity

C[C@@H]1CN(c2cc(-c3n[nH]c4ccc(OC5(C)CC5)cc34)ncn2)C[C@H](C)O1 [MLi-2]
inactive: [1]; [10] 94% | [2]; [10] 77% | [3]; [10] 62% | [4]; [10] 98% | [5]; [10] 100% | [6]; [10] 100% | [7]; [10] 86% | [8]; [10] 100% | [9]; [10] 74%

C[C@@H]1CN(c2cc(-c3nn(C)c4ccc(OC5(C)CC5)cc34)ncn2)C[C@H](C)O1 [MLi-2-NC]
inactive: [1]; [11] 100% | [2]; [11] 71% | [3]; [11] 60% | [4]; [11] 82% | [5]; [11] 89% | [6]; [11] 90% | [7]; [11] 92% | [8]; [11] 96% | [9]; [11] 100%
